Measurements from PubChem BioAssay (NCI).
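Step 1: Grow cells in 96-well plates. Step 2: Expose to compound for 48 hours at 5 concentrations. Step 3: Interpolate endpoints linearly; if unreached, use highest concentration. Abbreviation: GI50, concentration required for 50% inhibition of growth. TGI: concentration producing complete growth inhibition.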

Tests used:
Assay in all cases: growth of human tumour cells (NCI), 48 h
HS 578T breast = test system: HS 578T breast
A498 renal = test system: A498 renal
EKVX NSCLC = test system: EKVX NSCLC
SF-268 CNS = test system: SF-268 CNS
M14 melanoma = test system: M14 melanoma
CAKI-1 renal = test system: CAKI-1 renal
HCC-2998 colon = test system: HCC-2998 colon
NCI-H522 lung = test system: NCI-H522 lung
HT29 colon = test system: HT29 colon
K-562 leukemia = test system: K-562 leukemia
UACC-257 melanoma = test system: UACC-257 melanoma
MDA-MB-468 breast = test system: MDA-MB-468 breast
PC-3 prostate = test system: PC-3 prostate
ACHN renal = test system: ACHN renal
MDA-MB-435 = test system: MDA-MB-435
MOLT-4 leukemia = test system: MOLT-4 leukemia
BT-549 breast = test system: BT-549 breast
SNB-19 CNS = test system: SNB-19 CNS
RXF 393 renal = test system: RXF 393 renal
SF-539 CNS = test system: SF-539 CNS
LOX IMVI melanoma = test system: LOX IMVI melanoma
HCT-116 colon = test system: HCT-116 colon
A549 NSCLC = test system: A549 NSCLC
786-0 renal = test system: 786-0 renal
SK-MEL-2 melanoma = test system: SK-MEL-2 melanoma
U251 CNS = test system: U251 CNS
OVCAR-3 ovarian = test system: OVCAR-3 ovarian
HCT-15 colon = test system: HCT-15 colon
SN12C renal = test system: SN12C renal
SK-MEL-5 melanoma = test system: SK-MEL-5 melanoma
SK-MEL-28 melanoma = test system: SK-MEL-28 melanoma
UO-31 renal = test system: UO-31 renal
SR leukemia = test system: SR leukemia
HOP-92 NSCLC = test system: HOP-92 NSCLC
DU-145 prostate = test system: DU-145 prostate
SNB-75 CNS = test system: SNB-75 CNS
UACC-62 melanoma = test system: UACC-62 melanoma
CCRF-CEM leukemia = test system: CCRF-CEM leukemia
SK-OV-3 ovarian = test system: SK-OV-3 ovarian
OVCAR-4 ovarian = test system: OVCAR-4 ovarian
OVCAR-5 ovarian = test system: OVCAR-5 ovarian
NCI-H23 lung = test system: NCI-H23 lung
SF-295 CNS = test system: SF-295 CNS
SW-620 colon = test system: SW-620 colon
HL-60(TB) leukemia = test system: HL-60(TB) leukemia
NCI-H460 lung = test system: NCI-H460 lung
NCI-H226 lung = test system: NCI-H226 lung
TK-10 renal = test system: TK-10 renal
RPMI-8226 leukemia = test system: RPMI-8226 leukemia
MALME-3M melanoma = test system: MALME-3M melanoma
IGROV1 ovarian = test system: IGROV1 ovarian
COLO 205 colon = test system: COLO 205 colon
HOP-62 NSCLC = test system: HOP-62 NSCLC
T-47D breast = test system: T-47D breast
MDA-MB-231 breast = test system: MDA-MB-231 breast
KM12 colon = test system: KM12 colon
OVCAR-8 ovarian = test system: OVCAR-8 ovarian
MCF7 breast = test system: MCF7 breast

`COc1ccccc1[C@H]1C(C(=O)c2ccc(O)cc2)C2(N[C@@H]1c1ccccc1)C(=O)Nc1ccc(Br)cc12` (stereo partly specified) gave a GI50 (HS 578T breast) of 8.2 µM, a TGI (HS 578T breast) of 23.2 µM and a GI50 (A498 renal) of 7.26 µM. For the same molecule, the TGI (A498 renal) was 15 µM, the GI50 (EKVX NSCLC) was 7.61 µM and the TGI (EKVX NSCLC) was 16.5 µM. For the same molecule, the GI50 (SF-268 CNS) was 7.05 µM, the TGI (SF-268 CNS) was 17.1 µM and the GI50 (M14 melanoma) was 7.35 µM. The TGI (M14 melanoma) was 15.4 µM, the GI50 (CAKI-1 renal) was 2.94 µM and the TGI (CAKI-1 renal) was 10.7 µM. The GI50 (HCC-2998 colon) was 6.55 µM, the TGI (HCC-2998 colon) was 14 µM and the GI50 (NCI-H522 lung) was 2.77 µM. The TGI (NCI-H522 lung) was 10.4 µM, the GI50 (HT29 colon) was 7.91 µM and the TGI (HT29 colon) was 17.6 µM. For the same molecule, the GI50 (K-562 leukemia) was 10.7 µM, the TGI (K-562 leukemia) was 43.1 µM and the GI50 (UACC-257 melanoma) was 7.81 µM. The TGI (UACC-257 melanoma) was 15.5 µM, the GI50 (MDA-MB-468 breast) was 2.22 µM and the TGI (MDA-MB-468 breast) was 8.66 µM. For the same molecule, the GI50 (PC-3 prostate) was 4.08 µM, the TGI (PC-3 prostate) was 13.9 µM and the GI50 (ACHN renal) was 7.72 µM. For the same molecule, the TGI (ACHN renal) was 15 µM, the GI50 (MDA-MB-435) was 7.39 µM and the TGI (MDA-MB-435) was 15.1 µM. It also gave a GI50 (MOLT-4 leukemia) of 4.42 µM, a TGI (MOLT-4 leukemia) of 23.2 µM and a GI50 (BT-549 breast) of 6.03 µM. It also gave a TGI (BT-549 breast) of 13.4 µM, a GI50 (SNB-19 CNS) of 7.62 µM and a TGI (SNB-19 CNS) of 14.8 µM. The GI50 (RXF 393 renal) was 5.63 µM, the TGI (RXF 393 renal) was 13.8 µM and the GI50 (SF-539 CNS) was 8.07 µM. It also gave a TGI (SF-539 CNS) of 15.4 µM, a GI50 (LOX IMVI melanoma) of 7.63 µM and a TGI (LOX IMVI melanoma) of 18.8 µM. For the same molecule, the GI50 (HCT-116 colon) was 7.03 µM, the TGI (HCT-116 colon) was 15.4 µM and the GI50 (A549 NSCLC) was 6.04 µM. It also gave a TGI (A549 NSCLC) of 13.6 µM, a GI50 (786-0 renal) of 8.4 µM and a TGI (786-0 renal) of 16.2 µM. For the same molecule, the GI50 (SK-MEL-2 melanoma) was 8.01 µM, the TGI (SK-MEL-2 melanoma) was 15.8 µM and the GI50 (U251 CNS) was 6.62 µM. For the same molecule, the TGI (U251 CNS) was 13.9 µM, the GI50 (OVCAR-3 ovarian) was 5.35 µM and the TGI (OVCAR-3 ovarian) was 12.4 µM. For the same molecule, the GI50 (HCT-15 colon) was 8.02 µM, the TGI (HCT-15 colon) was 18.1 µM and the GI50 (SN12C renal) was 2.65 µM. It also gave a TGI (SN12C renal) of 9.49 µM, a GI50 (SK-MEL-5 melanoma) of 9.09 µM and a TGI (SK-MEL-5 melanoma) of 17.1 µM. For the same molecule, the GI50 (SK-MEL-28 melanoma) was 8.02 µM, the TGI (SK-MEL-28 melanoma) was 15.4 µM and the GI50 (UO-31 renal) was 6.07 µM. The TGI (UO-31 renal) was 12.8 µM, the GI50 (SR leukemia) was 5.57 µM and the TGI (SR leukemia) was 18.4 µM. It also gave a GI50 (HOP-92 NSCLC) of 6.52 µM, a TGI (HOP-92 NSCLC) of 14.7 µM and a GI50 (DU-145 prostate) of 9.39 µM. For the same molecule, the TGI (DU-145 prostate) was 18 µM, the GI50 (SNB-75 CNS) was 5.98 µM and the TGI (SNB-75 CNS) was 13.6 µM. The GI50 (UACC-62 melanoma) was 7.15 µM, the TGI (UACC-62 melanoma) was 14.2 µM and the GI50 (CCRF-CEM leukemia) was 7.57 µM. The TGI (CCRF-CEM leukemia) was 24.4 µM, the GI50 (SK-OV-3 ovarian) was 8.08 µM and the TGI (SK-OV-3 ovarian) was 16.3 µM. For the same molecule, the GI50 (OVCAR-4 ovarian) was 7.19 µM, the TGI (OVCAR-4 ovarian) was 16.4 µM and the GI50 (OVCAR-5 ovarian) was 7.47 µM. For the same molecule, the TGI (OVCAR-5 ovarian) was 14.7 µM, the GI50 (NCI-H23 lung) was 8.25 µM and the TGI (NCI-H23 lung) was 16.7 µM. For the same molecule, the GI50 (SF-295 CNS) was 6.63 µM, the TGI (SF-295 CNS) was 14.1 µM and the GI50 (SW-620 colon) was 8.34 µM. It also gave a TGI (SW-620 colon) of 16.8 µM, a GI50 (HL-60(TB) leukemia) of 12.2 µM and a TGI (HL-60(TB) leukemia) of 39.3 µM. The GI50 (NCI-H460 lung) was 6.91 µM, the TGI (NCI-H460 lung) was 15 µM and the GI50 (NCI-H226 lung) was 5.1 µM. For the same molecule, the TGI (NCI-H226 lung) was 14.9 µM, the GI50 (TK-10 renal) was 7.34 µM and the TGI (TK-10 renal) was 15.2 µM. The GI50 (RPMI-8226 leukemia) was 8.42 µM, the TGI (RPMI-8226 leukemia) was 47.7 µM and the GI50 (MALME-3M melanoma) was 8.42 µM. For the same molecule, the TGI (MALME-3M melanoma) was 16.1 µM, the GI50 (IGROV1 ovarian) was 4.56 µM and the TGI (IGROV1 ovarian) was 11.8 µM. For the same molecule, the GI50 (COLO 205 colon) was 8.67 µM, the TGI (COLO 205 colon) was 18.2 µM and the GI50 (HOP-62 NSCLC) was 8.27 µM. It also gave a TGI (HOP-62 NSCLC) of 16.7 µM, a GI50 (T-47D breast) of 6.67 µM and a TGI (T-47D breast) of 16.6 µM. It also gave a GI50 (MDA-MB-231 breast) of 6.39 µM, a TGI (MDA-MB-231 breast) of 13.3 µM and a GI50 (KM12 colon) of 7.73 µM. For the same molecule, the TGI (KM12 colon) was 16.9 µM, the GI50 (OVCAR-8 ovarian) was 8.3 µM and the TGI (OVCAR-8 ovarian) was 16.7 µM. For the same molecule, the GI50 (MCF7 breast) was 6.66 µM and the TGI (MCF7 breast) was 19.1 µM.
